Like-named read-outs stand apart in the source and are kept apart here.
Key:
OX1 = biological target: T1, OX1 (Homo sapiens, UniProt O43613); experiment: Measurement of orexin receptor-binding ability ([125I]-OX-A, cell membranes, OX1); set-up: expressed in transfected cells; host or cells: CHO cells (membrane preparation)
T1 sequence (O43613 1-425): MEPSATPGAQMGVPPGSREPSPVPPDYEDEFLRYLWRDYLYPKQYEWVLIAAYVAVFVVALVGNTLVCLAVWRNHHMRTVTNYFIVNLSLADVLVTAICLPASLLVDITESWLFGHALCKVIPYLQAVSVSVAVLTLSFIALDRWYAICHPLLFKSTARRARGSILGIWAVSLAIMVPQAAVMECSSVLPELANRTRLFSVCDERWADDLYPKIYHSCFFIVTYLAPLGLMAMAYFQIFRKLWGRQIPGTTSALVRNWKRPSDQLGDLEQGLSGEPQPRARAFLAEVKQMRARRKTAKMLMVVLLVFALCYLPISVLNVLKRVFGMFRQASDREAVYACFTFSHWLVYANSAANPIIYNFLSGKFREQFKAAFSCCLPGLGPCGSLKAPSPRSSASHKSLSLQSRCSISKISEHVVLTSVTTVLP
Description: 1. Measurement of Orexin Receptor-Binding Ability
The assay was carried out using a 96-well Wheat Germ Agglutinin Flash Plate (PerkinElmer). The volume in a single assay well was 100 ul, and the composition of the reaction solution was as follows:
25 mM HEPES (pH 7.5), 1 mM CaCl2, 4.5 mM MgCl2, 0.5% BSA (bovine serum albumin), 0.1% sodium azide, 0.05% Tween-20, and 0.2% DMSO.
Cell membranes were prepared from recombinant CHO cells that expressed OX2 or OX1. The cell membranes were used in an amount of 5 μg protein/assay. […] Finally, the radioactivity of each well was measured using a scintillation counter (TopCount, PerkinElmer).

OX2 = biological target: T2, OX2 (Homo sapiens, UniProt O43614); experiment: Measurement of orexin receptor-binding ability ([125I]-OX-A, cell membranes, OX2); set-up: expressed in transfected cells; host or cells: CHO cells (membrane preparation); conditions: membranes of recombinant CHO cells expressing OX2, 0.2 nM [125I]-OX-A
T2 sequence (O43614 1-444): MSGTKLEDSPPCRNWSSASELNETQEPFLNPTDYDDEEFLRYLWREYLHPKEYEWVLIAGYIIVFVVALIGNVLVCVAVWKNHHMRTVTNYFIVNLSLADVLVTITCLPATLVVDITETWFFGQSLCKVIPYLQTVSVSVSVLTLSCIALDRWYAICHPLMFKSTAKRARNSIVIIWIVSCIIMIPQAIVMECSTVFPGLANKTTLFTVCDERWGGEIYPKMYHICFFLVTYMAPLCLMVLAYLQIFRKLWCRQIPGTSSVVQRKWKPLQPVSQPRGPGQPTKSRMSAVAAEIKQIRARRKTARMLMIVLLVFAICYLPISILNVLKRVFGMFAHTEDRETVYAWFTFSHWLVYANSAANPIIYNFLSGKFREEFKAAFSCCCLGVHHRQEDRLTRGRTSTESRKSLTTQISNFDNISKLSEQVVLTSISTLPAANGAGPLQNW

[1] = membranes of recombinant CHO cells expressing OX1, 0.2 nM [125I]-OX-A, read-out: OX1 (IC50)

CCc1nc(C)ncc1OC[C@@]1(c2ccc(F)cc2)C[C@H]1C(=O)Nc1cc(Cl)ccn1 [Example 247, (1R,2S)-N-(4-chloropyridin-2-yl)-2-{[(4-ethyl-2-methylpyrimidin-5-yl)oxy]methyl}-2-(4-fluorophenyl)cyclopropanecarboxamide]
IC50 (OX1; [1]): 22 nM
IC50 (OX2; read-out: OX2 (IC50)): 3 nM

Cc1ncc(OC[C@@]2(c3cc(F)ccc3O)C[C@H]2C(=O)Nc2ccc(F)cn2)c(C)n1 [Example 324, (1R,2S)-2-{[(2,4-dimethylpyrimidin-5-yl)oxy]methyl}-2-(5-fluoro-2-hydroxyphenyl]-N-(5-fluoropyridin-2-yl)cyclopropanecarboxamide]
IC50 (OX1): 113 nM
IC50 (OX2; OX2 (IC50) nM): 5.9 nM

Cc1ncc(OCC2(c3cccc(F)c3F)CC2C(=O)Nc2ccc(F)cn2)c(C)n1 (stereo not shown) [Example 162, 2-(2,3-difluorophenyl)-2-{[(2,4-dimethylpyrimidin-5-yl)oxy]methyl}-N-(5-fluoropyridin-2-yl)cyclopropanecarboxamide]
IC50 (OX1): 65 nM
IC50 (OX2; OX2 (IC50) nM): 13 nM

Cc1ncc(OC[C@@]2(c3cccc(F)c3)C[C@H]2C(=O)Nc2ccncc2)c(C)n1 [Example 90]
IC50 (OX1): 2060 nM
IC50 (OX2; OX2 (IC50) nM): 95 nM

COCc1cc(NC(=O)[C@@H]2C[C@@]2(COc2cnc(C)nc2C)c2cccc(F)c2)ncc1F [Example 86, (1R,2S)-2-{[(2,4-dimethylpyrimidin-5-yl)oxy]methyl}-N-(5-fluoro-4-methoxymethylpyridin-2-yl)-2-(3-fluorophenyl)cyclopropanecarboxamide]
IC50 (OX1): 6.3 nM
IC50 (OX2; OX2 (IC50) nM): 6.1 nM

Cc1ncc(OC[C@@]2(c3ccccc3)C[C@H]2C(=O)Nc2cc(C(F)(F)F)ccn2)c(C)n1 [Example 10]
IC50 (OX1; [1]): 228 nM
IC50 (OX2; read-out: OX2 (IC50)): 31 nM

COCc1nc(C)ncc1OC[C@@]1(c2ccc(F)cc2)C[C@H]1C(=O)Nc1ccc(F)c(F)c1 [Example 207, (1R,2S)-N-(3,4-difluorophenyl)-2-(4-fluorophenyl)-2-{[(4-methoxymethyl-2-methylpyrimidin-5-yl)oxy]methyl}cyclopropanecarboxamide]
IC50 (OX1; [1]): 110 nM
IC50 (OX2; read-out: OX2 (IC50)): 9 nM

Cc1cc(NC(=O)[C@@H]2C[C@@]2(COc2cnc(C)nc2C)c2ccccc2)ccn1 [Example 28]
IC50 (OX1; [1]): 1700 nM
IC50 (OX2; read-out: OX2 (IC50)): 101 nM

Cc1ncc(OC[C@@]2(c3ccc(F)c(F)c3)C[C@H]2C(=O)Nc2ccc(F)cc2)c(C)n1 [Example 165, (1R,2S)-2-(3,4-difluorophenyl)-2-{[(2,4-dimethylpyrimidin-5-yl)oxy]methyl}-N-(4-fluorophenyl)cyclopropanecarboxamide]
IC50 (OX1; [1]): 29 nM
IC50 (OX2; read-out: OX2 (IC50)): 7 nM

COc1cncc(NC(=O)[C@@H]2C[C@@]2(COc2cnc(C)nc2C)c2cccc(F)c2)c1 [Example 89]
IC50 (OX1): 161 nM
IC50 (OX2; OX2 (IC50) nM): 14 nM

COc1ccccc1C1(COc2cnc(C)nc2C)CC1C(=O)Nc1cccnc1 (stereo not shown) [Example 126]
IC50 (OX1; [1]): 100 nM
IC50 (OX2; read-out: OX2 (IC50)): 107 nM

Cc1ncc(OC[C@@]2(c3ccsc3)C[C@H]2C(=O)Nc2ccc(F)cn2)c(C)n1 [Example 270]
IC50 (OX1): 264 nM
IC50 (OX2; OX2 (IC50) nM): 58 nM

Cc1ncc(OC[C@@]2(c3ccccc3)C[C@H]2C(=O)Nc2cccc(CC#N)c2)c(C)n1 [Example 39, (1R,2S)-N-[3-(cyanomethyl)phenyl]-2-{[(2,4-dimethylpyrimidin-5-yl)oxy]methyl}-2-phenylcyclopropanecarboxamide]
IC50 (OX1; [1]): 354 nM
IC50 (OX2; read-out: OX2 (IC50)): 6 nM

Cc1ncc(OC[C@@]2(c3ccccc3)C[C@H]2C(=O)Nc2ccnc(F)c2)c(C)n1 [Example 18]
IC50 (OX1; [1]): 344 nM
IC50 (OX2; read-out: OX2 (IC50)): 33 nM

Cc1ncc(OC[C@@]2(c3cccc(F)c3)C[C@H]2c2nc3ncccc3c(=O)[nH]2)c(C)n1 [Example 312]
IC50 (OX1; [1]): 136 nM
IC50 (OX2; read-out: OX2 (IC50)): 62 nM

COCc1cc(NC(=O)[C@@H]2C[C@@]2(COc2cnc(C)nc2C)c2ccc(F)cc2)ncc1F [Example 109, (1R,2S)-2-{[(2,4-dimethylpyrimidin-5-yl)oxy]methyl}-N-(5-fluoro-4-methoxymethylpyridin-2-yl)-2-(4-fluorophenyl)cyclopropanecarboxamide]
IC50 (OX1): 12 nM
IC50 (OX2; OX2 (IC50) nM): 5.8 nM

Cc1ncc(OCC2(c3cccc(Cl)c3)CC2C(=O)Nc2ccc(F)cn2)c(C)n1 (stereo not shown) [Example 154]
IC50 (OX1): 6 nM
IC50 (OX2; OX2 (IC50) nM): 7 nM

CC(=O)c1cccc(NC(=O)[C@@H]2C[C@@]2(COc2cnc(C)nc2C)c2ccccc2)c1 [Example 37]
IC50 (OX1): 41 nM
IC50 (OX2; OX2 (IC50) nM): 8 nM

COCc1nc(C)ncc1OC[C@@]1(c2ccc(F)c(F)c2)C[C@H]1C(=O)Nc1cc(C)c(F)cn1 [Example 212, (1R,2S)-2-(3,4-difluorophenyl)-N-(5-fluoro-4-methylpyridin-2-yl)-2-{[(4-methoxymethyl-2-methylpyrimidin-5-yl)oxy]methyl}cyclopropanecarboxamide]
IC50 (OX1; [1]): 4 nM
IC50 (OX2; read-out: OX2 (IC50)): 7 nM

COc1cc(NC(=O)[C@@H]2C[C@@]2(COc2cnc(C)nc2C)c2cc(F)cc(F)c2)ncc1F [Example 138, (1R,2S)-2-(3,5-difluorophenyl)-2-{[(2,4-dimethylpyrimidin-5-yl)oxy]methyl}-N-(5-fluoro-4-methoxypyridin-2-yl)cyclopropanecarboxamide]
IC50 (OX1; [1]): 2.6 nM
IC50 (OX2; read-out: OX2 (IC50)): 2.4 nM

Cc1ncc(OC[C@@]2(c3ccccc3)C[C@H]2C(=O)Nc2ccnc(Cl)c2)c(C)n1 [Example 33]
IC50 (OX1; [1]): 209 nM
IC50 (OX2; read-out: OX2 (IC50)): 15 nM

COc1cc(F)cc([C@]2(COc3cnc(C)nc3C)C[C@H]2C(=O)Nc2ccc(F)cn2)c1 [Example 254]
IC50 (OX1): 109 nM
IC50 (OX2; OX2 (IC50) nM): 11 nM

COCc1cc(NC(=O)[C@@H]2C[C@@]2(COc2cnc(C)nc2C)c2ccccc2)ncc1F [Example 71, (1R,2S)-2-{[(2,4-dimethylpyrimidin-5-yl)oxy]methyl}-N-[5-fluoro-4-(methoxymethyl)pyridin-2-yl]-2-phenylcyclopropanecarboxamide]
IC50 (OX1; [1]): 52 nM
IC50 (OX2; read-out: OX2 (IC50)): 5.1 nM

COCc1cccc(NC(=O)[C@@H]2C[C@@]2(COc2cnc(C)nc2C)c2ccccc2)c1 [Example 42]
IC50 (OX1): 374 nM
IC50 (OX2; OX2 (IC50) nM): 12 nM

Cc1ncc(OC[C@@]2(c3cc(F)cc(F)c3)C[C@H]2C(=O)Nc2ccc(F)cc2F)c(C)n1 [Example 135, (1R,2S)-N-(2,4-difluorophenyl)-2-(3,5-difluorophenyl)-2-{[(2,4-dimethylpyrimidin-5-yl)oxy]methyl}cyclopropanecarboxamide]
IC50 (OX1; [1]): 14 nM
IC50 (OX2; read-out: OX2 (IC50)): 8 nM

COc1cc(NC(=O)[C@@H]2C[C@@]2(COc2cnc(C)nc2C)c2ccccc2)ccn1 [Example 72]
IC50 (OX1; [1]): 202 nM
IC50 (OX2; read-out: OX2 (IC50)): 31 nM

Cc1ccc(C2(COc3cnc(C)nc3C)CC2C(=O)Nc2ccc(Cl)cn2)cc1 (stereo not shown) [Example 175]
IC50 (OX1): 62 nM
IC50 (OX2; OX2 (IC50) nM): 35 nM

Cc1ncc(OC[C@@]2(c3cccc(C(F)(F)F)c3)C[C@H]2C(=O)Nc2ccc(F)cn2)c(C)n1 [Example 266, (1R,2S)-2-{[(2,4-dimethylpyrimidin-5-yl)oxy]methyl}-N-(5-fluoropyridin-2-yl)-2-(3-trifluoromethylphenyl)cyclopropanecarboxamide]
IC50 (OX1): 30 nM
IC50 (OX2; OX2 (IC50) nM): 2.7 nM

Cc1ncc(OC[C@@]2(c3cccc(F)c3)C[C@H]2C(=O)Nc2ccc(Br)cn2)c(C)n1 [Example 279]
IC50 (OX1): 24 nM
IC50 (OX2; OX2 (IC50) nM): 3.2 nM

Cc1nc(CO)ncc1OC[C@@]1(c2cccc(F)c2)C[C@H]1C(=O)Nc1ccc(F)cn1 [Example 323, (1R,2S)-2-(3-fluorophenyl)-N-(5-fluoropyridin-2-yl)-2-{[(2-hydroxymethyl-4-methylpyrimidin-5-yl)oxy]methyl}cyclopropanecarboxamide]
IC50 (OX1): 32.6 nM
IC50 (OX2; OX2 (IC50) nM): 2.6 nM

COc1ccc(C2(COc3cnc(C)nc3C)CC2C(=O)Nc2ccc(Cl)cn2)cc1 (stereo not shown) [Example 182]
IC50 (OX1; [1]): 99 nM
IC50 (OX2; read-out: OX2 (IC50)): 21 nM

COCc1nc(C)ncc1OC[C@@]1(c2cccc(F)c2)C[C@H]1C(=O)Nc1ccc(F)cc1F [Example 196, (1R,2S)-N-(2,4-difluorophenyl)-2-(3-fluorophenyl)-2-{[(4-methoxymethyl-2-methylpyrimidin-5-yl)oxy]methyl}cyclopropanecarboxamide]
IC50 (OX1; [1]): 9 nM
IC50 (OX2; read-out: OX2 (IC50)): 4 nM
